Test results reported in the NIST ThermoML archive (doi:10.1016/j.jct.2019.03.007).
Numbers after ± are expanded uncertainties.

Assay: Molar enthalpy of transition or fusion
Conditions: DSC

Question: What does the source list for `O=[N+]([O-])[O-].O=[N+]([O-])[O-].[Ca+2]` [calcium nitrate]?
Answer: Molar enthalpy of transition or fusion (Crystal 1): 7.98 ± 0.502 kcal/mol; Molar enthalpy of transition or fusion (Crystal 2): 0.0289 ± 0.0263 kcal/mol
